In one series the target is T1, human PXR (hPXR) (Homo sapiens, UniProt O75469).
T1 sequence (O75469 1-434): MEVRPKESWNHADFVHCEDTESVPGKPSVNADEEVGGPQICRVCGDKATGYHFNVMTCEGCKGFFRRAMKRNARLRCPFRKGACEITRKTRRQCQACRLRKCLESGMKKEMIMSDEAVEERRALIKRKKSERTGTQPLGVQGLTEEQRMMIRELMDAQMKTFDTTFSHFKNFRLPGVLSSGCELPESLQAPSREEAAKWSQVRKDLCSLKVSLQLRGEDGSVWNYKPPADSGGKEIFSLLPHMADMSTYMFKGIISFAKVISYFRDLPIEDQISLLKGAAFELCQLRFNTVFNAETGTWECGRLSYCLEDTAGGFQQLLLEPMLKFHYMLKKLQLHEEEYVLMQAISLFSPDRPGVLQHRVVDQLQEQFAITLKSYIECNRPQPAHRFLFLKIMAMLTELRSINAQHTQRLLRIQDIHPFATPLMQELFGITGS
Nature of the series: In vitro transcription assay, PXR reporter gene (MRP2 luciferase) with hPXR expression plasmid in 293T cells. The procedure: These assays were performed in 293T cells as previously published (33). In brief, transient transfection by lipofectamine (Invitrogen) were carried out in 293T cells with plasmids expressing human PXR (hPXR), mouse PXR (mPXR), GAL4-FXR, GAL4-LXR, GAL4-PPARγ and mouse CAR (mCAR) with respective reporter plasmids (Tk-MRP2-luciferase, Tk-MH100-luciferase, CYP2B10-luciferase) and Renilla. For TLR4 promoter luciferase transcription assay, TLR4 promoter reporter construct (a gift from Dr. Michael Rehli of University of Regensburg, Germany) was transfected along with human PXR, mouse PU.1 expression plasmids and Renilla. […] The cells were harvested in passive lysis buffer (Promega) and luciferase activity was detected using the dualluciferase reporter assay system from Promega in 20 μl of cell lysate using the Turner Biosystems 20/20 n Luminometer. Assays were performed at least two independent times each in triplicates.
For orientation: Reporter assays use an easily measured gene product as a stand-in for the process of interest.

A further series addresses T2, mouse PXR (mPXR) (Mus musculus, UniProt O54915).
T2 construct: expressed in transfected cells; host or cells: 293T cells
T2 sequence (O54915 1-431): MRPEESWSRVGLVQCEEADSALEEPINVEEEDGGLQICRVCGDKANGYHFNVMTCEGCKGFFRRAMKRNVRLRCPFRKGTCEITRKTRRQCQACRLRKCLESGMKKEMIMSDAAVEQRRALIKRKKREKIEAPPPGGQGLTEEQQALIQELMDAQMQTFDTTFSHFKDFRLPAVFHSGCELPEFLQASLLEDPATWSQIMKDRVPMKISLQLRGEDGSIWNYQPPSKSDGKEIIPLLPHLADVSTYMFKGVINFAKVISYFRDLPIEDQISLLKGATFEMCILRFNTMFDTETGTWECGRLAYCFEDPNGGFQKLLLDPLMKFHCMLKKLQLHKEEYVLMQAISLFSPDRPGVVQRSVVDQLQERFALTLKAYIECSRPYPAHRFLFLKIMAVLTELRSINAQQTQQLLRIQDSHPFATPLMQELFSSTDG
Nature of the series: In vitro transcription assay, PXR reporter gene (MRP2 luciferase) with mPXR expression plasmid in 293T cells. In kind it is cell-based.

pEC50: −log10 of the molar value.

Usually pEC50 stands for the EC50 on a negative log10 scale, so that one unit is a factor of ten.

Description for mouse PXR (mPXR): These assays were performed in 293T cells as previously published (33). In brief, transient transfection by lipofectamine (Invitrogen) were carried out in 293T cells with plasmids expressing human PXR (hPXR), mouse PXR (mPXR), GAL4-FXR, GAL4-LXR, GAL4-PPARγ and mouse CAR (mCAR) with respective reporter plasmids (Tk-MRP2-luciferase, Tk-MH100-luciferase, CYP2B10-luciferase) and Renilla. […] The cells were harvested in passive lysis buffer (Promega) and luciferase activity was detected using the dualluciferase reporter assay system from Promega in 20 μl of cell lysate using the Turner Biosystems 20/20 n Luminometer. Assays were performed at least two independent times each in triplicates.

At human PXR (hPXR), `O=C(O)CCc1c[nH]c2ccccc12` [IPA, indole-3-propionic acid] had a pEC50 of 3.92. For the same compound, on human PXR (hPXR) (IPA alone, MRP2 luciferase, 293T cells), the “Emax, hPXR transcription assay” value is given as 6.38 fold over control. Besides, the “hPXR activation in combination with indole” value on human PXR (hPXR) (fixed concentration of indole (1 mM), increasing concentrations of metabolite) was “significantly activates hPXR”. For the same compound, at mouse PXR (mPXR), the pEC50 is 6.26 and the “Emax, mPXR transcription assay” value worked out at 18.84 fold over control.

The values above are taken from US9925222B2, “Gut barrier dysfunction treatment and prevention” (ALBERT EINSTEIN COLLEGE OF MEDICINE OF YESHIVA UNIVERSITY, priority 2012, dated 2018).
